Key:
[1] = test system: MeCP2-KO mouse hippocampal neurons; assay: Phenotypic neuronal atrophy screening in miniaturized 96-well cultures, treatment DIV 3 to DIV 6 (MAP2/NeuN, NeuriteQuant); type: cell-based; settings: for total dendritic length (TDL) / terminal branches (EP): individually or in combination; for minimal effective concentration: Mus musculus, Hippocampal neuron, individual drugs, DIV 3 to DIV 6, read-out: minimum effective concentration in the in vitro assays
Method: Three morphological parameters were measured: 1) the area of the neuronal cell body (soma), 2) the total dendritic length (TDL), 3) the number of dendritic endpoints (EP).
The Kruskall-Wallis test was also performed in this phase, in order to compare non-parametric data between more than two groups: *p <0.05, **p<0.01, ***p<0.001.
To quantify the effects of the interactions, the same morphological parameters used to test the individual drugs at DIV 6 were measured, namely total dendritic length (TDL) and the number of terminal branches (EP = Endpoints).

[2] = in vivo; cited from earlier work

| Compound | total dendritic length (TDL) ([1]; 0.1 µM, DIV 3 to DIV 6 (fig. 6A, 6B)) | terminal branches (EP) ([1]; 0.1 µM, DIV 3 to DIV 6 (fig. 6C, 6D)) | minimal effective concentration [1] [µM] | total dendritic length (TDL) ([1]; 1 µM, DIV 3 to DIV 6 (fig. 5A, 5B)) | terminal branches (EP) ([1]; 1 µM, DIV 3 to DIV 6 (fig. 5C, 5D)) | capabilities to penetrate the blood-brain barrier [2] | half-life [2] [h] |
| --- | --- | --- | --- | --- | --- | --- | --- |
| O=c1[nH]c(=O)n([C@H]2C[C@H](O)[C@@H](CO)O2)cc1I [idoxuridine] | no positive effect | no positive effect | 10 |  |  |  |  |
| C=C1/C(=C\C=C2/CCC[C@]3(C)[C@@H]([C@H](C)/C=C/[C@@H](O)C4CC4)CC[C@@H]23)C[C@@H](O)C[C@@H]1O [calcipotriene] |  |  | 10 | no positive effect | no positive effect |  |  |
| Cc1ccc(C(=O)c2cc(O)c(O)c([N+](=O)[O-])c2)cc1 [tolcapone] |  |  |  |  |  | excellent | 2.9 |
